Measured values reported in patent publication US8969325B2, “TRPV1 antagonists” (AbbVie Inc., priority 2011, dated 2015).

Tests used:
human TRPV1 [1] = target: T1, human TRPV1 (Homo sapiens (Human), UniProt Q8NER1); test: Capsaicin Activation Assay (intracellular Ca2+, FLIPR); assay type: cell-based; conditions: recombinant HEK293 cells expressing hTRPV1, 50 nM capsaicin
Procedure, shortened: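 Stably transfected HEK293 cells expressing human TRPV1 cDNA, plated the day before in poly-D-lysine plates. Compounds serially diluted from 10 mM DMSO stocks; intracellular Ca2+ fluorescence read on FLIPR at 1 to 5 second intervals.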

human TRPV1 [2] = target: T1, human TRPV1; test: Acid Activation Assay (pH 5.0, intracellular Ca2+, FLIPR); assay type: cell-based; conditions: percentage of the maximal pH 5.0-induced response remaining; recombinant HEK293 hTRPV1 cells; maximum concentration tested 37.5 μM
Procedure, shortened: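 HEK293 cells stably expressing recombinant hTRPV1, loaded with Calcium-4 dye 90-120 min at 25° C. Compounds added over a 12-point half-log range (top 37.5 μM), then pH 5.0 DPBS/MES challenge after 3 min; FLIPR peak fluorescence over baseline given as % of maximal pH 5.0 response.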

T1 sequence (Q8NER1 whole entry): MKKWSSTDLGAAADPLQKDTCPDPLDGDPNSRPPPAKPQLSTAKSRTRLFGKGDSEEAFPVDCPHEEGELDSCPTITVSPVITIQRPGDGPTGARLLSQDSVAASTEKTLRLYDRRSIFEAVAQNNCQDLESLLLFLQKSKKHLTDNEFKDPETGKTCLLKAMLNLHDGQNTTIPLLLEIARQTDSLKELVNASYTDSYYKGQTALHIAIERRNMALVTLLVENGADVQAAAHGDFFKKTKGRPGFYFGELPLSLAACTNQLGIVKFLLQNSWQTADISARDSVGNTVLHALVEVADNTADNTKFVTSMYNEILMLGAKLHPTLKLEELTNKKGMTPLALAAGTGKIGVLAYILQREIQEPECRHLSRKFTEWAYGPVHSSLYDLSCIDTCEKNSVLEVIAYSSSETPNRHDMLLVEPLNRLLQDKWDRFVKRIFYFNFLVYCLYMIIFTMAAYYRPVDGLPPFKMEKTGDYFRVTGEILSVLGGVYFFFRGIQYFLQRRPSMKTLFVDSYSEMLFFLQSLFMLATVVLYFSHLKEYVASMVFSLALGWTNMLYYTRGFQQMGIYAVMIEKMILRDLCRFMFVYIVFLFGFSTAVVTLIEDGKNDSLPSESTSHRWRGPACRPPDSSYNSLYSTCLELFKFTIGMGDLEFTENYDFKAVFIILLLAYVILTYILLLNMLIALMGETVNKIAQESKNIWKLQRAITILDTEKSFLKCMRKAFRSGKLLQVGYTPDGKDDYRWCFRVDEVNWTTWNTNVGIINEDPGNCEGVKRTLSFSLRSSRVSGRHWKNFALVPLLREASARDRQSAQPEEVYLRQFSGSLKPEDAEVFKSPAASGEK

Row | Compound | IC50 (human TRPV1 [1]) [nM] | human TRPV1 H^+ (max % remain) (human TRPV1 [2]) [%]
1 | C[C@@]1(CF)C[C@@H](NC(=O)Nc2ccc3c(c2)NC(=O)N(CCO)C3)c2ccc(C(F)(F)F)cc2O1 [Example 58, 1-[(2S,4R)-2-(fluoromethyl)-2-methyl-7-(trifluoromethyl)-3,4-dihydro-2H-chromen-4-yl]-3-[3-(2-hydroxyethyl)-2-oxo-1,2,3,4-tetrahydroquinazolin-7-yl]urea] | 63 | 2
2 | C[C@@]1(CF)C[C@@H](NC(=O)Nc2ccc3c(c2)NC(=O)N(CCO)C3)c2ccc(Cl)cc2O1 [Example 59, 1-[(2S,4R)-7-chloro-2-(fluoromethyl)-2-methyl-3,4-dihydro-2H-chromen-4-yl]-3-[3-(2-hydroxyethyl)-2-oxo-1,2,3,4-tetrahydroquinazolin-7-yl]urea] | 1500 | 2
3 | C[C@]1(C(F)F)C[C@@H](NC(=O)Nc2ccc3c(c2)NC(=O)N(CCO)C3)c2ccccc2O1 [Example 60, 1-[(2R,4R)-2-(difluoromethyl)-2-methyl-3,4-dihydro-2H-chromen-4-yl]-3-[3-(2-hydroxyethyl)-2-oxo-1,2,3,4-tetrahydroquinazolin-7-yl]urea] | 1300 | 9
4 | CC1(C)C[C@@H](NC(=O)Nc2ccc3c(c2)NC(=O)N(CCO)C3)c2ccc(Cl)c(F)c2O1 [Example 61, 1-[(4R)-7-chloro-8-fluoro-2,2-dimethyl-3,4-dihydro-2H-chromen-4-yl]-3-[3-(2-hydroxyethyl)-2-oxo-1,2,3,4-tetrahydroquinazolin-7-yl]urea] | 1200 | 2
5 | CC1(C)C[C@@H](NC(=O)Nc2ccc3c(c2)NC(=O)N(CCO)C3)c2ccc(C(F)(F)F)nc2O1 [Example 62, 1-[(4R)-2,2-dimethyl-7-(trifluoromethyl)-3,4-dihydro-2H-pyrano[2,3-b]pyridin-4-yl]-3-[3-(2-hydroxyethyl)-2-oxo-1,2,3,4-tetrahydroquinazolin-7-yl]urea] | 1500 | 9
6 | CC1(C)C[C@@H](NC(=O)Nc2ccc3c(c2)NC(=O)N(CCO)C3)c2ccc(Br)cc2O1 [Example 63, 1-[(4R)-7-bromo-2,2-dimethyl-3,4-dihydro-2H-chromen-4-yl]-3-[3-(2-hydroxyethyl)-2-oxo-1,2,3,4-tetrahydroquinazolin-7-yl]urea] | 97 | 3
7 | CCC1(CC)C[C@@H](NC(=O)Nc2cccc3c2ccc(=O)n3C)c2ccc(C(F)(F)F)cc2O1 [Example 69, 1-[(4R)-2,2-diethyl-7-(trifluoromethyl)-3,4-dihydro-2H-chromen-4-yl]-3-(1-methyl-2-oxo-1,2-dihydroquinolin-5-yl)urea] | 55 | 13
8 | CCC1(CC)C[C@@H](NC(=O)Nc2cccc3c2ccc(=O)n3C)c2ccc(Cl)cc2O1 [Example 70, 1-[(4R)-7-chloro-2,2-diethyl-3,4-dihydro-2H-chromen-4-yl]-3-(1-methyl-2-oxo-1,2-dihydroquinolin-5-yl)urea] | 29 | 17
9 | Cn1c(=O)ccc2c(NC(=O)N[C@@H]3CC(CF)(CF)Oc4ccc(F)cc43)cccc21 [Example 71, 1-[(4R)-6-fluoro-2,2-bis(fluoromethyl)-3,4-dihydro-2H-chromen-4-yl]-3-(1-methyl-2-oxo-1,2-dihydroquinolin-5-yl)urea] | 29 | 46
10 | Cn1c(=O)ccc2c(NC(=O)N[C@@H]3CC(CF)(CF)Oc4c(F)cc(F)cc43)cccc21 [Example 72, 1-[(4R)-6,8-difluoro-2,2-bis(fluoromethyl)-3,4-dihydro-2H-chromen-4-yl]-3-(1-methyl-2-oxo-1,2-dihydroquinolin-5-yl)urea] | 54 | 36
11 | CCC1(CC)C[C@@H](NC(=O)Nc2cccc3c2ccc(=O)n3C)c2ccc(OC(F)(F)F)cc2O1 [Example 76, 1-[(4R)-2,2-diethyl-7-(trifluoromethoxy)-3,4-dihydro-2H-chromen-4-yl]-3-(1-methyl-2-oxo-1,2-dihydroquinolin-5-yl)urea] | 32 | 17
12 | Cn1c(=O)ccc2c(NC(=O)N[C@@H]3CC(C)(C)Oc4ccccc43)cccc21 [Example 77, 1-[(4R)-2,2-dimethyl-3,4-dihydro-2H-chromen-4-yl]-3-(1-methyl-2-oxo-1,2-dihydroquinolin-5-yl)urea] | 41 | 58
13 | Cn1c(=O)ccc2c(NC(=O)N[C@H]3CCOc4cc(OC(F)(F)F)ccc43)cccc21 [Example 78, 1-(1-methyl-2-oxo-1,2-dihydroquinolin-5-yl)-3-[(4S)-7-(trifluoromethoxy)-3,4-dihydro-2H-chromen-4-yl]urea] | 91 | 46

Stronger by IC50 (human TRPV1 [1]), values ahead:

Row | IC50 (human TRPV1 [1]) [nM] | human TRPV1 H^+ (max % remain) (human TRPV1 [2]) [%] | Compound
14 | 14 | 26 | Cn1c(=O)ccc2c(NC(=O)N[C@@H]3CCOc4cc(C(F)(F)F)ccc43)cccc21 [Example 64, 1-(1-methyl-2-oxo-1,2-dihydroquinolin-5-yl)-3-[(4R)-7-(trifluoromethyl)-3,4-dihydro-2H-chromen-4-yl]urea]
15 | 28 | 37 | Cn1c(=O)ccc2c(NC(=O)N[C@@H]3CC4(CCCC4)Oc4ccccc43)cccc21 [Example 65, 1-[(4R)-3,4-dihydrospiro[chromene-2,1′-cyclopentan]-4-yl]-3-(1-methyl-2-oxo-1,2-dihydroquinolin-5-yl)urea]
16 | 15 | 42 | CCC1(CC)C[C@@H](NC(=O)Nc2cccc3c2ccc(=O)n3C)c2cccc(F)c2O1 [Example 66, 1-[(4R)-2,2-diethyl-8-fluoro-3,4-dihydro-2H-chromen-4-yl]-3-(1-methyl-2-oxo-1,2-dihydroquinolin-5-yl)urea]
17 | 17 | 41 | CCC1(CC)C[C@@H](NC(=O)Nc2cccc3c2ccc(=O)n3C)c2ccccc2O1 [Example 67, 1-[(4R)-2,2-diethyl-3,4-dihydro-2H-chromen-4-yl]-3-(1-methyl-2-oxo-1,2-dihydroquinolin-5-yl)urea]
18 | 20 | 34 | Cn1c(=O)ccc2c(NC(=O)N[C@@H]3CCc4cc(C(C)(C)C)ccc43)cccc21 [Example 68, 1-[(1R)-5-tert-butyl-2,3-dihydro-1H-inden-1-yl]-3-(1-methyl-2-oxo-1,2-dihydroquinolin-5-yl)urea]
19 | 19 | 32 | Cn1c(=O)ccc2c(NC(=O)N[C@@H]3CC4(CCC4)Oc4ccc(F)cc43)cccc21 [Example 73, 1-[(4R)-6-fluoro-3,4-dihydrospiro[chromene-2,1′-cyclobutan]-4-yl]-3-(1-methyl-2-oxo-1,2-dihydroquinolin-5-yl)urea]
20 | 19 | 28 | CCC1(CC)C[C@@H](NC(=O)Nc2cccc3c2ccc(=O)n3C)c2cc(F)ccc2O1 [Example 74, 1-[(4R)-2,2-diethyl-6-fluoro-3,4-dihydro-2H-chromen-4-yl]-3-(1-methyl-2-oxo-1,2-dihydroquinolin-5-yl)urea]
21 | 24 | 50 | CCCC1(CCC)C[C@@H](NC(=O)Nc2cccc3c2ccc(=O)n3C)c2cccc(F)c2O1 [Example 75, 1-[(4R)-8-fluoro-2,2-dipropyl-3,4-dihydro-2H-chromen-4-yl]-3-(1-methyl-2-oxo-1,2-dihydroquinolin-5-yl)urea]
